Data: US20210106703A1, “RADIOIMMUNOCONJUGATES IN COMBINATION WITH OTHER DRUGS AS TREATMENT AGAINST NHL” (Nordic Nanovector ASA, priority 2017, published 2021)
Like-named read-outs stand apart in the source and are kept apart here.

How the values were obtained:
U2932 cells = test: Alamar Blue cytotoxicity study; format: cell-based, human; settings: for IC50: Homo sapiens; for Combination Index (Chou-Talalay): 120 h
Description: Cells were treated with either Humalutin, olaparib or a combination of both and seeded into 96 well-plates. At each time point after treatment, cells were incubated with Alamar Blue (Thermo Fisher, DALL1100) for 4 hours and fluorescence measurements were performed using a multiplate reader Fluoroskan ascent FL to assess cell proliferation and viability. All experiments were done in duplicates using 2 samples in each experiment. Data were normalized to the untreated controls.
(§1) Cells were incubated with 0.25, 0.5, 1, 2.5 or 5 μg/ml of Humalutin in cell culture flasks and incubated at 37° C./5% CO2. After 18-20 hours cells were washed and resuspended in fresh medium. Cell bound activity after washing was measured using a calibrated gamma detector (Cobra II auto-gamma detector, Packard Instrument Company, Meriden, Conn., USA). Cell concentration and viability was also measured after washing using Guava ViaCount Cell Dispersal Reagent for Flow Cytometry (Merck GaA, Darmstadt, Germany) and measured in a Guava EasyCyte 12HT (Merck KGaA, Darmstadt, Germany) to determine how well the cells survived the incubation. Cells were seeded in 96 well plates.
Cells were seeded in 96 well plates pre-coated with from 1 to 100 μM olaparib in 0.2 ml medium and incubated at 37° C./5% CO2 for 72 hours before the cytotoxic effect was measured using alamar blue cell viability assay.
Cells were incubated with either 0, 0.5 μg/ml or 1 μg/ml Humalutin and the same procedure as described before for treatment with humalutin alone and olaparib alone was followed. Concentrations of olaparib used were between 1 and 100 μM.
The Chou-Talalay model was used for synergy calculations using the Compusyn software. R (goodness of fit) was calculated for the individual treatments and should be over 0.90 in in vitro culture experiments in order to use the calculated combination index (CI). The CI is an indication of synergy: 0-0.9 is considered synergy. Synergysm grading was used as described in WO2006004917A2. […]
as §1, with “viability were” for “viability was”, “plates. Alamar blue viability measurements were performed 120 h after seeding.” for “plates.”
Cells were incubated with either 0 (control), 0.5 μg/ml or 1 μg/ml Humalutin for 18 to 20 hours. Cells were then washed and resuspended in fresh medium.

[1] = test system: CDK1 and its phosphorylations, p345-Chk1, Wee-1, Myt-1, CDK7 in DOHH2 cells; test: Protein expression by Western blot; format: cell-based, human
Description: Protein expression was assessed in 1×10^6 Ramos, DOHH2 or Rec-1 cells/mL grown in 12-well plates and exposed for 18 h to 0 and 6 MBq/mL of ^177Lu-lilotomab. Cells were harvested at 0, 2 h, 18 h, 1 d, 2 d and 3 d of RIT. At each time point, cells were rinsed and incubated in RIPA buffer (Santa Cruz) at 4° C. for 30 minutes. Cells were centrifuged and supernatant (containing proteins) were collected. Proteins were electrophoresed through SDS-PAGE using 12% poly-acrylamide gels and electrotransferred onto nitrocellulose membranes. Blots were incubated with anti-CDK1, anti-p-CDK1(Tyr15) (clone 10A11), anti-p-CDK1(Thr14), anti-p-CDK1(Thr161), anti-CDK7, anti-Wee-1 (clone D10D2), anti-Myt-1, anti-p-CHK1 (Ser345) and anti-human GAPDH (1/1000, Cell Signaling Technologies, Leiden, The Netherlands) primary antibodies. Blot were washed and incubated with horseradish peroxidase-conjugated anti-mouse Ig (115-036-072, Jackson ImmunoResearch) or with horseradish peroxidase-conjugated anti-rabbit Ig (7074, Cell Signaling). Signal detection of immunoblots was carried out using the enhanced chemiluminescence protocol according to the manufacturer's instructions (Clarity™ Western ECL blotting substrates, 1705061, BioRad). PXi analyser (Ozyme) was used to measure levels of protein expression.

Ramos cells = test: Immunoreactive fraction, one point modified Lindmo method; format: binding, human; settings: 75 million Ramos cells/ml
Description: The immunoreactivity of the radioimmunoconjugates was measured using Ramos cells and a one point modified Lindmo method. The cell concentration used was 75 million cells/ml. The immunoreactivity of the conjugates was higher than 70%.
The immunoreactivity of the radioimmunoconjugates was measured using Ramos cells and a one point modified Lindmo method (1, 2). The cell concentration used was 75 million cells/ml. The immunoreactivity of the conjugates was higher than 70%.
The immunoreactivity of the radioimmunoconjugates was measured using Ramos cells and a one point modified Lindmo method. The cell concentration used was 75 million cells/ml. The immunoreactivity of the conjugates was higher than 70%).

## CC1(C)CCC(CN2CCN(c3ccc(C(=O)NS(=O)(=O)c4ccc(NCC5CCOCC5)c([N+](=O)[O-])c4)c(Oc4cnc5[nH]ccc5c4)c3)CC2)=C(c2ccc(Cl)cc2)C1 [venetoclax]
U2932 cells; read-out: IC50 at 120 h, U2932, 120 h incubation after seeding
  IC50: 1.14 µM
U2932 cells; U2932, 72 h incubation after seeding, read-out: IC50
  IC50: 4.15 µM
U2932 cells; U2932, drug 10 μM + Humalutin 0.5 μg/ml
  Combination Index (Chou-Talalay): 0.50
U2932 cells; U2932, drug 10 μM + Humalutin 1 μg/ml
  Combination Index (Chou-Talalay): 0.09
U2932 cells; U2932, drug 40 μM + Humalutin 0.5 μg/ml
  Combination Index (Chou-Talalay): 0.91
U2932 cells; U2932, drug 40 μM + Humalutin 1 μg/ml
  Combination Index (Chou-Talalay): 0.23
U2932 cells; U2932, drug 80 μM + Humalutin 0.5 μg/ml
  Combination Index (Chou-Talalay): 0.54
U2932 cells; U2932, drug 80 μM + Humalutin 1 μg/ml
  Combination Index (Chou-Talalay): 0.12
U2932 cells; U2932, drug 100 μM + Humalutin 0.5 μg/ml
  Combination Index (Chou-Talalay): 0.49
U2932 cells; U2932, drug 100 μM + Humalutin 1 μg/ml
  Combination Index (Chou-Talalay): 0.07
U2932 cells; U2932, venetoclax 0.25 + Humalutin 0.5 μg/ml
  Combination Index (Chou-Talalay): 0.02
U2932 cells; U2932, venetoclax 0.25 + Humalutin 1 μg/ml
  Combination Index (Chou-Talalay): 0.12
U2932 cells; U2932, venetoclax 0.5 + Humalutin 0.5 μg/ml
  Combination Index (Chou-Talalay): 0.01
U2932 cells; U2932, venetoclax 0.5 + Humalutin 1 μg/ml
  Combination Index (Chou-Talalay): 0.10
U2932 cells; U2932, venetoclax 1 + Humalutin 0.5 μg/ml
  Combination Index (Chou-Talalay): 0.03
U2932 cells; U2932, venetoclax 1 + Humalutin 1 μg/ml
  Combination Index (Chou-Talalay): 0.08
U2932 cells; U2932, venetoclax 2.5 + Humalutin 0.5 μg/ml
  Combination Index (Chou-Talalay): 0.03
U2932 cells; U2932, venetoclax 2.5 + Humalutin 1 μg/ml
  Combination Index (Chou-Talalay): 0.06

B1: Lutetium-177 [^177Lu]-lilotomab satetraxetan (conjugate, chains of the INN, looked up)
VH: EIQLQQSGPELVKPGASVKVSCKASGYSFTDYNMYWVKQSHGKSLEWIGYIDPYNGDTTYNQKFKGKATLTVDKSSSTAFIHLNSLTSEDSAVYYCARSPYGHYAMDYWGQGTSVTVSS
VL: DIVMTQSHKLLSTSVGDRVSITCKASQDVSTAVDWYQQKPGQSPKLLINWASTRHTGVPDRFTGSGSGTDYTLTISSMQAEDLALYYCRQHYSTPFTFGSGTKLEIK
modifications: 177Lu satetraxetan chelator conjugate
[1]; DOHH2
  Expression of Wee-1: became undetectable at 24 h post-treatment
[1]; DOHH2, 6 MBq/mL for 18 h
  Activating pThr161 CDK1 phosphorylation: persistent increase
  CDK1 level: decreased in DOHH2 at 48 h and 72 h
  Inhibitory pTyr15 and pThr14 CDK1 phosphorylations: dropped respectively at 24 h and 48 h
[1]; DOHH2, 18 h after treatment
  Expression of Myt-1: decreased
[1]; DOHH2, at 18-24 h
  Level of phosphorylated CHK1 (Ser345): increased
[1]; DOHH2, compared with Ramos cells
  Levels of CDK7: stable or increased
Ramos cells
  Immunoreactivity: higher than 70%
